Reference: patent publication US20250312493A1, “FLUOROPHORE-LOADED GELATIN-BASED NANOPARTICLES FOR NEAR-INFRARED IMAGING” (The Board of Trustees of the University of Illinois, priority 2022, published 2025)

Key:
4T1 tumor = experiment: In vivo NIR fluorescence imaging, tumor to background ratio; design: species or system mice
Procedure: Animal tumor model: Female immunodeficient mice (J:NU, 2 months old, average body weight 25 g) were purchased from the Jackson Laboratory (Bar Harbor, Maine, USA). Animal study was performed in strict accordance with the recommendations in the Guide for the Care and Use of Laboratory Animals of the National Institutes of Health. Breast cancer xenograft was established by the orthotopic administration of 100 μl 4T1 cell solution (10^6 cells per injection) at the mammary fat pad of the second nipple of the left side of each mouse using a 27G½ needle. Anesthesia was maintained by mask inhalation of 1.5-2.0% isoflurane throughout the procedure.
In vivo and ex vivo NIR fluorescence (NIRF) imaging: When the tumor area reached 10 mm^2 within 14 days, nine tumor-bearing mice were administered with ICG, ICG-GNP I or ICG-GNP II, i.e., three mice for each probe, […] The mice administered with ICG-GNP II were imaged using a bioinspired imaging sensor developed for NIRF image-guided surgery. At each time point, the fluorescence from the primary tumor and surrounding tissues (background) of mice under 2% isoflurane were recorded at 37° C. as regions of interest using the IVIS. A ratio between the mean fluorescence from the tumor and background was assessed and expressed as a TBR. […] The fluorescence intensity of each organ or tissue was acquired using the IVIS and bioinspired imaging sensor.

[1] = Fluorescence intensity of blood after intravenous administration; type: in vivo, healthy nude mice; conditions: 24-hour post-administration, equivalent to 2 mg/kg ICG
Procedure: Healthy nude mice were administered with either 100 μl PBS solutions of ICG-free or ICG-GNP I (equivalent to 2 mg/kg ICG) intravenously via retro-orbital injection. 100 μl of blood was collected from the lateral tail vein immediately and 24 hours after the administration, transferred to a 96-well plate, and analyzed their fluorescence intensity using the IVIS (n=3).

[2] = Fluorescence intensity at various ICG concentrations in PBS (IVIS); type: physicochemical; conditions: 0.05 μM-100 μM ICG
Procedure: GNP I or GNP II dispersed in 1 ml of ICG in DI-H2O, with a GNP-to-ICG weight ratio of 20, were incubated for 2 hours at 25° C. The resulting suspension was centrifuged (13,000 rpm/5 min) to discard free ICG in the supernatant. The fluorescence intensity of naked ICG (ICG-free), ICG-loaded GNP I (ICG-GNP I) and GNP II (ICG-GNP II) at various ICG concentrations was recorded and quantified using an In Vivo Imaging System (IVIS, Perkin Elmer, Waltham, MA, USA) (ex 740/em 800 nm).

Structure (SMILES): CC1(C)C(/C=C/C=C/C=C/C=C2\N(CCCCS(=O)(=O)O)c3ccc4ccccc4c3C2(C)C)=[N+](CCCCS(=O)(=O)[O-])c2ccc3ccccc3c21 [ICG-free, indocyanine green]
- differences in MFI between the tumor and background (4T1 tumor; 1 mg/kg dose): no measurable differences
- TBR (tumor to background ratio) (4T1 tumor; during a 24-hour period, 2 mg/kg dose, IVIS): ~1.5
- fluorescence of blood samples [1]: minimal fluorescence
- ICG concentration above which MFI decreases [2]: above 50 μM
- ICG concentration at which MFI reaches a peak [2]: 10 µM
